ChEMBL document CHEMBL3045401, “(Naphthalen-1-yloxy)-acetic acid benzylidene/(1-phenyl-ethylidene)-hydrazide derivatives: synthesis, antimicrobial evaluation, and QSAR studies” (Med Chem Res, 2012)
Converted amounts (≈) assume the structure as drawn.

What was measured:
[1] = Octanol-water partition coefficient, log P of the compound; assay type: physicochemical
[2] = system: Aspergillus niger; assay: Antimicrobial activity against Aspergillus niger after 7 days by serial dilution method; assay type: functional
[3] = system: Candida albicans; assay: Antimicrobial activity against Candida albicans after 2 days by serial dilution method; assay type: functional
[4] = system: Escherichia coli; assay: Antimicrobial activity against Escherichia coli after 24 hr by serial dilution method; assay type: functional
[5] = system: Staphylococcus aureus; assay: Antimicrobial activity against Staphylococcus aureus after 24 hr by serial dilution method; assay type: functional
[6] = system: Bacillus subtilis; assay: Antimicrobial activity against Bacillus subtilis after 24 hr by serial dilution method; assay type: functional
[7] = Cytotoxicity against HEL assessed as minimum concentration required to cause morphological changes; assay type: cell-based; conditions: human, HEL cells
[8] = system: Human betaherpesvirus 5; assay: Antiviral activity against Human herpesvirus 5 Davis infected human HEL cells assessed as reduction in the virus plaque formation; assay type: functional, organism-based; conditions: Human betaherpesvirus 5, Davis
[9] = system: Human betaherpesvirus 5; assay: Antiviral activity against Human herpesvirus 5 strain AD169 infected human HEL cells assessed as reduction in the virus plaque formation; assay type: functional, organism-based; conditions: Human betaherpesvirus 5, AD169, HEL
[10] = Cytotoxicity against HEL; assay type: cell-based; conditions: human, HEL cells
[11] = system: Human alphaherpesvirus 3; assay: Antiviral activity against thymidine kinase-deficient Human herpesvirus 3 infected in HEL cells assessed as inhibition of viral plaque formation; assay type: functional, organism-based; conditions: Human alphaherpesvirus 3, HEL
[12] = system: Human alphaherpesvirus 3; assay: Antiviral activity against thymidine kinase-positive Human herpesvirus 3 infected in HEL cells assessed as inhibition of viral plaque formation; assay type: functional, organism-based; conditions: Human alphaherpesvirus 3, HEL
[13] = Cytotoxicity against Homo sapiens (human) MT4 cells after 4 days by MTT assay; assay type: cell-based
[14] = system: Human immunodeficiency virus 2; assay: Antiviral activity against Human immunodeficiency virus type 2 (ISOLATE ROD) infected human MT4 cells assessed as inhibition of virus-induced cytopathic effect after 4 days by MTT assay; assay type: functional, organism-based; conditions: Human immunodeficiency virus 2, ISOLATE ROD, MT4, 96 h
[15] = system: Human immunodeficiency virus 1; assay: Antiviral activity against Human immunodeficiency virus 1 IIIB infected human MT4 cells assessed as inhibition of virus-induced cytopathic effect after 4 days by MTT assay; assay type: functional, organism-based; conditions: MT4, 96 h

| Structure (SMILES) | logP [1] | -logMIC [2] | -logMIC [3] | -logMIC [4] | -logMIC [5] | -logMIC [6] | MCC [7] | EC50 [8] | EC50 [9] | CC50 [10] | EC50 [11] | EC50 [12] | CC50 at 96 h [13] | EC50 [14] | EC50 [15] |
| --- | --- | --- | --- | --- | --- | --- | --- | --- | --- | --- | --- | --- | --- | --- | --- |
| O=C(COc1cccc2ccccc12)N/N=C/c1ccc(Br)cc1 | 4.81 | 0.58 | 0.58 | 0.58 | 0.58 | 0.58 | > 100 µg/mL | > 100 µg/mL | > 100 µg/mL | 100 µg/mL (≈ 261 µM) | > 100 µg/mL | > 100 µg/mL | 106 µg/mL (≈ 278 µM) | > 106 µg/mL | > 106 µg/mL |
| C/C(=N\NC(=O)COc1cccc2ccccc12)c1ccccc1O | 3.08 | 0.82 | 0.82 | 1.43 | 1.13 | 0.82 | 20 µg/mL | > 4 µg/mL | > 4 µg/mL | 4 µg/mL (≈ 12 µM) | 7.9 µg/mL (≈ 23.6 µM) | 7 µg/mL (≈ 20.9 µM) | 11.2 µg/mL (≈ 33.6 µM) | > 11.2 µg/mL | > 11.2 µg/mL |
| C/C(=N\NC(=O)COc1cccc2ccccc12)c1ccccc1 | 3.65 | 0.82 | 0.82 | 0.82 | 0.82 | 0.82 | 20 µg/mL | > 4 µg/mL | > 4 µg/mL | 20 µg/mL (≈ 62.8 µM) | > 20 µg/mL | > 20 µg/mL | 105 µg/mL (≈ 328 µM) | > 105 µg/mL | > 105 µg/mL |
| Cc1ccc(/C=N/NC(=O)COc2cccc3ccccc23)cc1 | 4.49 | 0.82 | 0.52 | 0.52 | 1.12 | 0.52 | 20 µg/mL | > 4 µg/mL | > 4 µg/mL | 80.1 µg/mL (≈ 252 µM) | > 20 µg/mL | > 20 µg/mL | 83.9 µg/mL (≈ 263 µM) | > 83.9 µg/mL | > 83.9 µg/mL |
| O=C(COc1cccc2ccccc12)N/N=C/c1ccc([N+](=O)[O-])cc1 | 3.97 | 0.54 | 1.45 | 0.84 | 0.84 | 1.14 | 20 µg/mL | > 4 µg/mL | > 4 µg/mL | 14.2 µg/mL (≈ 40.6 µM) | > 4 µg/mL | > 4 µg/mL | 87.8 µg/mL (≈ 251 µM) | > 87.8 µg/mL | > 87.8 µg/mL |
| O=C(COc1cccc2ccccc12)N/N=C/c1ccccc1 | 4.02 | 0.78 | 0.78 | 0.78 | 0.78 | 0.78 | 100 µg/mL | > 20 µg/mL | > 20 µg/mL | 64.5 µg/mL (≈ 212 µM) | > 20 µg/mL | > 20 µg/mL | ≥ 96.6 µg/mL | > 96.6 µg/mL | > 96.6 µg/mL |
| COc1cc(/C=N/NC(=O)COc2cccc3ccccc23)cc(OC)c1OC | 3.26 | 1.5 | 1.5 | 1.5 | 1.8 | 1.5 | ≥ 20 µg/mL | > 20 µg/mL | > 4 µg/mL | 47.9 µg/mL (≈ 121 µM) | 17.4 µg/mL (≈ 44.1 µM) | 12.5 µg/mL (≈ 31.7 µM) | 13.4 µg/mL (≈ 34 µM) | > 13.4 µg/mL | > 13.4 µg/mL |
| O=C(COc1cccc2ccccc12)N/N=C/c1ccccc1Br | 4.81 | 0.88 | 0.88 | 0.88 | 1.19 | 0.88 | ≥ 20 µg/mL | > 20 µg/mL | > 4 µg/mL | 100 µg/mL (≈ 261 µM) | > 4 µg/mL | > 4 µg/mL | 11.4 µg/mL (≈ 29.8 µM) | > 11.4 µg/mL | > 11.4 µg/mL |
| CSc1ccc(/C=N/NC(=O)COc2cccc3ccccc23)cc1 | 4.11 | 0.54 | 1.45 | 0.85 | 0.85 | 0.85 | ≥ 100 µg/mL | > 20 µg/mL | > 20 µg/mL | > 100 µg/mL | > 20 µg/mL | > 20 µg/mL | 68.3 µg/mL (≈ 195 µM) | > 68.3 µg/mL | > 68.3 µg/mL |
| O=C(COc1cccc2ccccc12)N/N=C/c1cccc(Cl)c1 | 4.54 | 0.53 | 0.53 | 0.53 | 0.83 | 0.53 | 100 µg/mL | > 20 µg/mL | > 20 µg/mL | 58.6 µg/mL (≈ 173 µM) | > 100 µg/mL | > 100 µg/mL | 89.9 µg/mL (≈ 265 µM) | > 89.9 µg/mL | > 89.9 µg/mL |
| O=C(COc1cccc2ccccc12)N/N=C/c1cccc(O)c1 | 3.73 | 1.41 | 1.41 | 1.41 | 1.71 | 1.11 | 100 µg/mL | > 20 µg/mL | > 20 µg/mL | 62.7 µg/mL (≈ 196 µM) | 16.2 µg/mL (≈ 50.6 µM) | 9.2 µg/mL (≈ 28.7 µM) | 32.6 µg/mL (≈ 102 µM) | > 32.6 µg/mL | > 32.6 µg/mL |
| C/C(=N\NC(=O)COc1cccc2ccccc12)c1ccc(O)cc1O | 4.31 | 1.45 | 1.45 | 1.75 | 1.15 | 1.15 | > 100 µg/mL | > 100 µg/mL | > 100 µg/mL | 74.8 µg/mL (≈ 213 µM) | > 100 µg/mL | 58.5 µg/mL (≈ 167 µM) | 59.9 µg/mL (≈ 171 µM) | > 59.9 µg/mL | > 59.9 µg/mL |
| O=C(COc1cccc2ccccc12)N/N=C/C=C/c1ccccc1 | 4.43 | 0.82 | 1.72 | 1.12 | 1.12 | 1.12 | 100 µg/mL | > 20 µg/mL | > 20 µg/mL | 100 µg/mL (≈ 303 µM) | > 20 µg/mL | > 20 µg/mL | 82.7 µg/mL (≈ 250 µM) | > 62.7 µg/mL | > 62.7 µg/mL |
| C/C(=N\NC(=O)COc1cccc2ccccc12)c1ccc(Cl)cc1 | 4.17 | 0.85 | 1.75 | 1.15 | 1.45 | 1.15 | ≥ 4 µg/mL | 4 µg/mL (≈ 11.3 µM) | > 0.8 µg/mL | 7.1 µg/mL (≈ 20.1 µM) | 3.24 µg/mL (≈ 9.18 µM) | 2.5 µg/mL (≈ 7.09 µM) | 4.07 µg/mL (≈ 11.5 µM) | > 4.07 µg/mL | > 4.07 µg/mL |
